Measured values taken from patent US20190070128A1, “USE OF CANNABIDIVARIN IN THE TREATMENT OF AUTISM SPECTRUM DISORDER, ASSOCIATED DISORDERS AND SCHIZOPHRENIA” (GW Research Limited, priority 2016, published 2019).

Key:
PCP-treated rats [1] = assay: social interaction test in sub-chronic PCP treated rats; format: in vivo, rat
Procedure: (§1) Female hooded-Lister rats were used for this experiment. Rats were housed in groups of 5 under standard laboratory conditions under a 12 hr light: dark cycle, lights on at 0700 hr. Testing was carried out in the light phase.
(§2) Rats were randomly assigned to two treatment groups and treated with vehicle, n=20 (distilled water, i.p.) or Phencyclidine hydrochloride (PCP), n=100 (2 mg/kg, i.p. twice daily for 7-days). PCP was dissolved in distilled water. This was followed by a 7-day wash out period before the rats were tested following acute treatment with CBDV, risperidone or vehicle.
(§3) Risperidone (0.1 mg/kg) was dissolved in a minimum volume of acetic acid, made up to volume with distilled water and pH adjusted to 6 with 0.1M NaOH and administered via the i.p. route in a volume of 1 ml/kg, 60 min prior to testing.
(§4) CBDV at 2, 10 or 20 mg/kg was dissolved in 2:1:17 (Ethanol:Cremofor:Saline 0.9%) and administered via the i.p. route in a volume of 5 ml/kg, 60 min prior to testing.
The social interaction test is performed in an open-field comprising a square box made of Plexiglas (52×52×31 cm) placed 27 cm above the floor on a moveable trolley. The floor of the box is white with black gridlines forming 9 identical squares on it. All other walls are black. A video camera connected to a video recorder and monitor is positioned above the box. The object used for the test consists of a heavy structure made of metal that cannot be displaced by the animals.
The rats were habituated to the test environment and arena prior to the test day. Habituation consists of placing all rats from one cage together in the empty test arena for one hour for three days including the day before the test day.
Pairs of rats, weight matched (15-20 g) and unfamiliar to each other, receiving either no treatment (n=70 “conspecific” rats) or different treatments (PCP and Vehicle; n=10 “tested” rats or PCP+Drug; n=50 “tested” rats) were placed in the test arena together for 10 min and behaviour assessed as described below.
An inanimate object such as an unopened drinks can is also placed in the centre of the arena to measure any differences in interaction of the test animal with an unfamiliar animal as opposed to an unfamiliar object. After each 10 minute trial, the object and arena are cleaned with 10% alcohol in an attempt to remove traces of any olfactory cues. All testing is carried out under standard room illumination levels (70 cd/m2).
Behaviour in both trials was recorded on video for subsequent blind scoring. A behavioural scoring software program (Hindsight, Scientific programming services) is used to score the following parameters: • Investigative sniffing behaviour: sniffing the conspecific's snout or parts of the body including the anogenital region; • Following: rat moves after the conspecific i.e. a vehicle treated rat of the same species, around the arena; • Avoidances: actively turning away when approached by the conspecific animal; • Investigation of object: exploration of object placed in centre of the arena; and • Locomotor activity is recorded by counting the total number of sectors (i.e. lines) crossed by the test rat.

PCP-treated rats [2] = conditions: rat, in vivo; cited from earlier work
PCP-treated rats [3] = assay: novel object recognition test in sub-chronic PCP treated rats; format: in vivo, rat; conditions: PCP rats; CBDV 2, 10 or 20 mg/kg i.p., risperidone 0.1 mg/kg i.p., 60 min prior to testing
Procedure: as §1, §2, §3, §4
Rats were allowed to habituate to the empty test box and the behavioural test room environment for 1 h on day 1. Prior to behavioural testing on day 2 rats are given a further 3 min habituation.
Following the 3 min habituation period, the rats are given two 3 min trials (T1 and T2) which are separated by a 1 min inter-trial interval in the home cage during which the objects are changed. Behaviour in all trials was recorded on video for subsequent blind scoring.
In this trial, the animals are allowed to explore two identical objects (A1 and A2) for 3 min.
In this trial, the animals explore a familiar object (A) from T1 and a novel object (B) for 3 min. The familiar object presented during T2 is a duplicate of the object presented in T1 in order to avoid any olfactory trails.
The object exploration is defined by animals licking, sniffing or touching the object with the forepaws whilst sniffing, but not leaning against, turning around, standing or sitting on the object. The exploration time (s) of each object (A, B, familiar and novel) in each trial are recorded using two stopwatches and the following factors are calculated: • Total exploration time of both objects in the acquisition trial (s). • Total exploration time of both objects in the retention trial (s). • Habituation of exploratory activity includes the exploration time, as measured by the number of lines crossed, for both the trials. • Discrimination index (DI), which is calculated as shown below: […]

Compound: Cc1nc2n(c(=O)c1CCN1CCC(c3noc4cc(F)ccc34)CC1)CCCC2 [risperidone, reference compound]
- PCP effects on social interaction (sniffing, following, avoiding) (PCP-treated rats [1]): reverse these effects in a statistically significant manner
- time spent following the other rat (PCP-treated rats [1]; risperidone 0.1 mg/kg, time increased over PCP alone group): not seen to be significant
- PCP-induced deficit in the novel object recognition test (PCP-treated rats [2]): attenuate
- preference between two identical objects, Trial 1 (acquisition) (PCP-treated rats [3]): no real preference
